Source: PubChem BioAssay AID1259407 (Chemical Carcinogenesis Research Information System (CCRIS), 2018)
Active and inactive are the calls of the source. The rule behind the calls is not given here.

System: CCRIS mutagenicity, Ames/micronucleus/aberration tests
Test: CCRIS mutagenicity studies
Conditions: Test System: AMES SALMONELLA TYPHIMURIUM
[1] = Strain/Indicator: TA98, Metabolic Activation: NONE, Method: PREINCUBATION
[2] = Strain/Indicator: TA100, Metabolic Activation: NONE, Method: PREINCUBATION
[3] = Strain/Indicator: TA102, Metabolic Activation: NONE, Method: STANDARD PLATE
[4] = Strain/Indicator: TA1535, Metabolic Activation: NONE, Method: PREINCUBATION
[5] = Strain/Indicator: TA1537, Metabolic Activation: NONE, Method: PREINCUBATION

## CC(C)(C)S(=O)(=O)C[C@@H](Cc1ccccc1)C(=O)N[C@@H](Cc1cnc[nH]1)C(=O)N[C@@H](CC1CCCCC1)[C@@H](O)[C@@H](O)C1CC1
Strain/Indicator: TA97, Metabolic Activation: NONE, Method: PREINCUBATION
  mutagenic call: inactive; negative
Strain/Indicator: TA97, Metabolic Activation: NONE, Method: STANDARD PLATE
  mutagenic call: inactive; negative
Strain/Indicator: TA97, Metabolic Activation: RAT, LIVER, S-9, PHENOBARBITAL AND BETA-NAPHTHOFLAVONE, Method: PREINCUBATION
  mutagenic call: inactive; negative
Strain/Indicator: TA97, Metabolic Activation: RAT, LIVER, S-9, PHENOBARBITAL AND BETA-NAPHTHOFLAVONE, Method: STANDARD PLATE
  mutagenic call: inactive; negative
[1]
  mutagenic call: inactive; negative
Strain/Indicator: TA98, Metabolic Activation: NONE, Method: STANDARD PLATE
  mutagenic call: inactive; negative
Strain/Indicator: TA98, Metabolic Activation: RAT, LIVER, S-9, PHENOBARBITAL AND BETA-NAPHTHOFLAVONE, Method: PREINCUBATION
  mutagenic call: inactive; negative
Strain/Indicator: TA98, Metabolic Activation: RAT, LIVER, S-9, PHENOBARBITAL AND BETA-NAPHTHOFLAVONE, Method: STANDARD PLATE
  mutagenic call: inactive; negative
[2]
  mutagenic call: inactive; negative
Strain/Indicator: TA100, Metabolic Activation: NONE, Method: STANDARD PLATE
  mutagenic call: inactive; negative
Strain/Indicator: TA100, Metabolic Activation: RAT, LIVER, S-9, PHENOBARBITAL AND BETA-NAPHTHOFLAVONE, Method: PREINCUBATION
  mutagenic call: inactive; negative
Strain/Indicator: TA100, Metabolic Activation: RAT, LIVER, S-9, PHENOBARBITAL AND BETA-NAPHTHOFLAVONE, Method: STANDARD PLATE
  mutagenic call: inactive; negative
Strain/Indicator: TA102, Metabolic Activation: NONE, Method: PREINCUBATION
  mutagenic call: inactive; negative
[3]
  mutagenic call: inactive; negative
Strain/Indicator: TA102, Metabolic Activation: RAT, LIVER, S-9, PHENOBARBITAL AND BETA-NAPHTHOFLAVONE, Method: PREINCUBATION
  mutagenic call: inactive; negative
Strain/Indicator: TA102, Metabolic Activation: RAT, LIVER, S-9, PHENOBARBITAL AND BETA-NAPHTHOFLAVONE, Method: STANDARD PLATE
  mutagenic call: inactive; negative
[4]
  mutagenic call: inactive; negative
Strain/Indicator: TA1535, Metabolic Activation: NONE, Method: STANDARD PLATE
  mutagenic call: inactive; negative
Strain/Indicator: TA1535, Metabolic Activation: RAT, LIVER, S-9, PHENOBARBITAL AND BETA-NAPHTHOFLAVONE, Method: PREINCUBATION
  mutagenic call: inactive; negative
Strain/Indicator: TA1535, Metabolic Activation: RAT, LIVER, S-9, PHENOBARBITAL AND BETA-NAPHTHOFLAVONE, Method: STANDARD PLATE
  mutagenic call: inactive; negative
[5]
  mutagenic call: inactive; negative
Strain/Indicator: TA1537, Metabolic Activation: NONE, Method: STANDARD PLATE
  mutagenic call: inactive; negative
Strain/Indicator: TA1537, Metabolic Activation: RAT, LIVER, S-9, PHENOBARBITAL AND BETA-NAPHTHOFLAVONE, Method: PREINCUBATION
  mutagenic call: inactive; negative
Strain/Indicator: TA1537, Metabolic Activation: RAT, LIVER, S-9, PHENOBARBITAL AND BETA-NAPHTHOFLAVONE, Method: STANDARD PLATE
  mutagenic call: inactive; negative
Strain/Indicator: TA1538, Metabolic Activation: NONE, Method: PREINCUBATION
  mutagenic call: inactive; negative
Strain/Indicator: TA1538, Metabolic Activation: NONE, Method: STANDARD PLATE
  mutagenic call: inactive; negative
Strain/Indicator: TA1538, Metabolic Activation: RAT, LIVER, S-9, PHENOBARBITAL AND BETA-NAPHTHOFLAVONE, Method: PREINCUBATION
  mutagenic call: inactive; negative
Strain/Indicator: TA1538, Metabolic Activation: RAT, LIVER, S-9, PHENOBARBITAL AND BETA-NAPHTHOFLAVONE, Method: STANDARD PLATE
  mutagenic call: inactive; negative

## CCCCCN
Strain/Indicator: TA98, Metabolic Activation: HAMSTER, LIVER, S-9, AROCLOR 1254 (10%), Method: PREINCUBATION
  mutagenic call: inactive; negative
[1]
  mutagenic call: inactive; negative
Strain/Indicator: TA98, Metabolic Activation: RAT, LIVER, S-9, AROCLOR 1254 (10%), Method: PREINCUBATION
  mutagenic call: inactive; negative
Strain/Indicator: TA100, Metabolic Activation: HAMSTER, LIVER, S-9, AROCLOR 1254 (10%), Method: PREINCUBATION
  mutagenic call: inactive; negative
[2]
  mutagenic call: inactive; negative
Strain/Indicator: TA100, Metabolic Activation: RAT, LIVER, S-9, AROCLOR 1254 (10%), Method: PREINCUBATION
  mutagenic call: inactive; negative
Strain/Indicator: TA1535, Metabolic Activation: HAMSTER, LIVER, S-9, AROCLOR 1254 (10%), Method: PREINCUBATION
  mutagenic call: inactive; negative
[4]
  mutagenic call: inactive; negative
Strain/Indicator: TA1535, Metabolic Activation: RAT, LIVER, S-9, AROCLOR 1254 (10%), Method: PREINCUBATION
  mutagenic call: inactive; negative
Strain/Indicator: TA1537, Metabolic Activation: HAMSTER, LIVER, S-9, AROCLOR 1254 (10%), Method: PREINCUBATION
  mutagenic call: inactive; negative
[5]
  mutagenic call: inactive; negative
Strain/Indicator: TA1537, Metabolic Activation: RAT, LIVER, S-9, AROCLOR 1254 (10%), Method: PREINCUBATION
  mutagenic call: inactive; negative

## CCn1nc(C(=O)O)c(=O)c2cc3c(cc21)OCO3
[3]
  mutagenic call: active; positive

## CC[C@@]1(O)C[C@H](O[C@H]2C[C@H](N(C)C)[C@H](O[C@H]3C[C@H](O)[C@H](O)[C@H](C)O3)C(C)O2)c2c(cc3c(c2O)C(=O)c2c(O)ccc(O)c2C3=O)[C@H]1C(=O)OC (stereo partly drawn)
[3]
  mutagenic call: active; positive
Strain/Indicator: TA104, Metabolic Activation: NONE, Method: STANDARD PLATE
  mutagenic call: active; positive
